In ChEMBL document CHEMBL1201862, “PubChem BioAssay data set” (2004):
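Test compounds were applied to cells in 96-well plates for 48 hours at 5 doses. The concentration for 50% growth inhibition is given as GI50.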 The source made the active and inactive calls. Cut-off read from the data, not from the text of the source: active = GI50 up to about 1.1 µM and inactive = higher.

Columns and labels:
Assay in all cases: inhibition of tumour cell growth, NCI panel, 48 h
[1] = system: ACHN
[2] = system: CAKI-1
[3] = system: HCT-116
[4] = system: HCT-15
[5] = system: HOP-62
[6] = system: K562
[7] = system: KM12
[8] = system: MDA-MB-231
[9] = system: MDA-MB-435
[10] = system: NCI-H522
[11] = system: PC-3
[12] = system: RPMI-8226
[13] = system: SF-295
[14] = system: SK-MEL-5
[15] = system: T47D
[16] = system: TK-10
[17] = system: U-251
[18] = system: UO-31
[19] = system: SR

Row | Structure (SMILES) | GI50 [1] | GI50 [2] | GI50 [3] | GI50 [4] [µM] | GI50 [5] | GI50 [6] | GI50 [7] | GI50 [8] | GI50 [9] | GI50 [10] | GI50 [11] | GI50 [12] | GI50 [13] | GI50 [14] | GI50 [15] | GI50 [16] | GI50 [17] | GI50 [18] | GI50 [19]
1 | O=C(Nc1sccc1S(=O)(=O)c1ccccc1)c1ccccc1 | > 100 µM (inactive) | > 100 µM (inactive) | > 100 µM (inactive) | 7.16 | > 70.5 µM (inactive) | 1.91 µM (inactive) | > 100 µM (inactive) | > 36.1 µM (inactive) | 3.69 µM (inactive) | > 100 µM (inactive) | > 100 µM (inactive) | > 100 µM (inactive) | > 100 µM (inactive) | > 79.3 µM (inactive) | > 100 µM (inactive) | > 100 µM (inactive) | > 100 µM (inactive) | > 100 µM (inactive) | –
2 | O=S(=O)(O)c1ccc(O)c2ncc(Cl)cc12 | > 100 µM (inactive) | > 100 µM (inactive) | > 100 µM (inactive) | > 100 | > 100 µM (inactive) | > 100 µM (inactive) | > 100 µM (inactive) | > 100 µM (inactive) | > 100 µM (inactive) | – | > 100 µM (inactive) | 51.1 µM (inactive) | > 100 µM (inactive) | > 100 µM (inactive) | > 100 µM (inactive) | – | > 100 µM (inactive) | > 100 µM (inactive) | > 100 µM (inactive)
3 | CNC1NC(=O)c2ccccc2N1Cc1ccc(F)cc1 (configuration not stated) | > 100 µM (inactive) | > 100 µM (inactive) | > 100 µM (inactive) | > 100 | > 100 µM (inactive) | > 100 µM (inactive) | > 100 µM (inactive) | > 100 µM (inactive) | > 100 µM (inactive) | > 100 µM (inactive) | > 100 µM (inactive) | > 100 µM (inactive) | > 100 µM (inactive) | > 100 µM (inactive) | > 100 µM (inactive) | > 100 µM (inactive) | > 100 µM (inactive) | 11.1 µM (inactive) | –
4 | CCOC(=O)c1c(SC(=O)c2ccc(Cl)cc2)n(-c2ccccc2)c(=S)n(-c2ccccc2)c1=O | > 100 µM (inactive) | > 100 µM (inactive) | > 100 µM (inactive) | > 100 | > 100 µM (inactive) | > 100 µM (inactive) | > 100 µM (inactive) | > 100 µM (inactive) | > 100 µM (inactive) | > 100 µM (inactive) | > 100 µM (inactive) | – | > 100 µM (inactive) | – | > 100 µM (inactive) | > 100 µM (inactive) | > 100 µM (inactive) | – | > 100 µM (inactive)
5 | CC1C2CC(C(S(=O)(=O)O)C2=O)C1(C)C (configuration not stated) | > 100 µM (inactive) | – | > 100 µM (inactive) | – | > 100 µM (inactive) | > 100 µM (inactive) | > 100 µM (inactive) | > 100 µM (inactive) | > 100 µM (inactive) | > 100 µM (inactive) | > 100 µM (inactive) | – | > 100 µM (inactive) | – | > 100 µM (inactive) | > 100 µM (inactive) | > 100 µM (inactive) | > 100 µM (inactive) | > 100 µM (inactive)
6 | COc1ccc(NC(=S)Nc2cc(C)ccn2)cc1 | > 100 µM (inactive) | > 100 µM (inactive) | > 100 µM (inactive) | > 100 | > 100 µM (inactive) | > 100 µM (inactive) | > 100 µM (inactive) | > 100 µM (inactive) | > 100 µM (inactive) | – | > 100 µM (inactive) | > 100 µM (inactive) | – | > 100 µM (inactive) | > 100 µM (inactive) | > 100 µM (inactive) | > 100 µM (inactive) | > 100 µM (inactive) | > 100 µM (inactive)
7 | CN(C)Cc1cc(O)c(O)c(CN(C)C)c1 | 34.5 µM (inactive) | 34.4 µM (inactive) | 41.3 µM (inactive) | 24.2 | 37.2 µM (inactive) | 33 µM (inactive) | 94.2 µM (inactive) | > 100 µM (inactive) | > 100 µM (inactive) | 30.3 µM (inactive) | 48.8 µM (inactive) | 35.7 µM (inactive) | 47 µM (inactive) | 29.4 µM (inactive) | 49.9 µM (inactive) | 37.5 µM (inactive) | 36.6 µM (inactive) | 25.9 µM (inactive) | –
8 | COC(=O)[C@@H]1[C@H]2CC[C@]3(C)[C@@H](OC(C)=O)CC[C@H]3[C@@H]2CC[C@H]1C(C)=O | > 100 µM (inactive) | > 100 µM (inactive) | > 100 µM (inactive) | > 100 | > 100 µM (inactive) | > 100 µM (inactive) | > 100 µM (inactive) | > 100 µM (inactive) | > 100 µM (inactive) | > 100 µM (inactive) | > 100 µM (inactive) | > 100 µM (inactive) | > 100 µM (inactive) | > 100 µM (inactive) | > 100 µM (inactive) | > 100 µM (inactive) | > 100 µM (inactive) | > 100 µM (inactive) | –
9 | O=C(N/N=C/c1ccc(Cl)cc1)c1cc(I)cc(I)c1O | > 100 µM (inactive) | > 100 µM (inactive) | > 100 µM (inactive) | > 100 | > 100 µM (inactive) | > 100 µM (inactive) | > 100 µM (inactive) | > 100 µM (inactive) | > 100 µM (inactive) | – | > 100 µM (inactive) | > 100 µM (inactive) | > 100 µM (inactive) | > 100 µM (inactive) | > 100 µM (inactive) | > 100 µM (inactive) | > 100 µM (inactive) | > 100 µM (inactive) | 76.6 µM (inactive)
10 | CC1=C(C(=O)NC(C)(C)C)CC(C(=O)NC(C)(C)C)C(C)N1 (configuration not stated) | > 100 µM (inactive) | > 100 µM (inactive) | > 100 µM (inactive) | > 100 | > 100 µM (inactive) | > 100 µM (inactive) | > 100 µM (inactive) | > 100 µM (inactive) | 93.8 µM (inactive) | > 100 µM (inactive) | > 100 µM (inactive) | > 100 µM (inactive) | > 100 µM (inactive) | > 100 µM (inactive) | > 100 µM (inactive) | > 100 µM (inactive) | > 100 µM (inactive) | > 100 µM (inactive) | –
11 | O=c1[nH]c(=O)n(C2OC(CO)C(O)C2O)cc1Oc1ccccc1 (configuration not stated) | > 100 µM (inactive) | > 100 µM (inactive) | > 100 µM (inactive) | > 100 | > 100 µM (inactive) | > 100 µM (inactive) | > 100 µM (inactive) | > 100 µM (inactive) | > 100 µM (inactive) | > 100 µM (inactive) | > 100 µM (inactive) | – | > 100 µM (inactive) | > 100 µM (inactive) | > 100 µM (inactive) | > 100 µM (inactive) | > 100 µM (inactive) | – | > 100 µM (inactive)
12 | CC(=O)OCCn1c(Cc2ccc(Cl)cc2)nn(C(C)=O)c1=O | > 100 µM (inactive) | > 100 µM (inactive) | > 100 µM (inactive) | > 100 | – | > 100 µM (inactive) | > 100 µM (inactive) | > 100 µM (inactive) | > 100 µM (inactive) | > 100 µM (inactive) | > 100 µM (inactive) | > 100 µM (inactive) | > 100 µM (inactive) | > 100 µM (inactive) | > 100 µM (inactive) | > 100 µM (inactive) | > 100 µM (inactive) | > 100 µM (inactive) | –
